From patent publication US10239832B2, “N-(1-hydroxy-3-(pyrrolidinyl)propan-2-yl)pyrrolidine-3-carboxamide derivatives as glucosylceramide synthase inhibitors” (BIOMARIN PHARMACEUTICAL INC., priority 2013, dated 2019)

Biological target: T1, GCS (Canis lupus familiaris, UniProt A0A8I3MXG6)
T1 construct: endogenous in cells; host or cells: MDCK (Madin-Darby canine kidney) cells, whole-cell lysate
T1 sequence (A0A8I3MXG6 1-394): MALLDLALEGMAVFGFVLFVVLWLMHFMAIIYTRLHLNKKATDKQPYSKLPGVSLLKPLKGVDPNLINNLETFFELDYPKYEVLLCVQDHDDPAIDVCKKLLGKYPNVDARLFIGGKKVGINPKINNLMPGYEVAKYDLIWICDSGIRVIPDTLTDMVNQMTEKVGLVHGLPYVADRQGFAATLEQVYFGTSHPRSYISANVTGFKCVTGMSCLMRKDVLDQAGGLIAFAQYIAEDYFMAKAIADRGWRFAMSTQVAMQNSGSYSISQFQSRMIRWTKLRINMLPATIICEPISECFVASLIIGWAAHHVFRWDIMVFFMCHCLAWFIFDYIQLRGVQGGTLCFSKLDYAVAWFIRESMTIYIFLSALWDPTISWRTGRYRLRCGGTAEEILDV
Test: GCS enzymatic assay (MDCK cell lysate, NBD-ceramide to glucosylceramide, LC/MS)
Assay type: biochemical, canine
Conditions: Table 2, the table does not say which of the assays; for Data Range (% inhibition): class symbols D, E, F, NA (not active); for IC50: class symbols A, B, C, read-out: Data Range (IC50 values)
Procedure: This assay was modified based on the study by Larsen et al. (J. Lipid Res. 2011, 53, 282). Madin-Darby canine kidney (MDCK) cell lysate was prepared using M-PER Mammalian Protein Extraction Reagent (Thermal Scientific) in the presence of a protease inhibitor cocktail (Roche). Protein concentration was determined using BCA assay kit (Pierce). […] 0.1% DMSO was used as mock treatment or control. The reaction was terminated by adding 100 μL acetonitrile solution and subjected to LC/MS analysis.
The quantitative analysis of NBD-Ceramide and glucosylceramide was performed on a Shimadzu ultra-fast liquid chromatography (Shimadzu, Japan) coupled with API 4000 triple quadrupole mass spectrometer (Applied Biosystems, Concord, Ontario, Canada). Sample separation was conducted on a Waters Xbridge™ BEH130 C18, 100 mm×4.6 mm i.d, 3.5 μm (Milford, Mass., USA). The mobile phase consisted of water and acetonitrile supplemented with 0.1% formic acid (v/v). The flow rate was 1.0 mL/min. The initial mobile phase was 20% acetonitrile and was ramped in a linear fashion to 50% acetonitrile in 0.4 min. From 0.4 to 1.5 min, the gradient was ramped to 98% acetonitrile, and then was held at […] until 8.0 min. Acetonitrile was reset to 20% in 1.5 min, and maintained until 10.0 min. The total run time was 10.0 min. The MS/MS detection was performed in ESI positive mode. The mass transition of NBD-Ceramide was m/z 576.36→558.40 under the collision energy of 15 V, and the mass transition of glucosylceramide was m/z 738.35→558.40 under 21V collision energy. The cell lysate was diluted with equal volume of acetonitrile. Aliquots of 50 μL diluted samples were added to 1.5 mL tubes, and 100 μL of acetonitrile containing internal standard (100 ng/mL tolbutamide) were added for protein precipitation. The mixture were vortexed and then centrifuged at 13000 rpm for 10 min. 70 μL of supernatant were mixed with 140 μL of H2O and the final solution were injected for LC/MS/MS analysis and IC50's and/or percent inhibitions calculated.

Row | Compound | Data Range (% inhibition) | IC50
1 | O=C(N[C@H](CN1CCCC1)[C@H](O)c1ccc2c(c1)OCCO2)C1CCN(CC2(O)CCOCC2)C1 (stereo partly drawn) [Compound 5D, N-((1R,2R)-1-(2,3-dihydrobenzo[b][1,4]dioxin-6-yl)-1-hydroxy-3-(pyrrolidin-1-yl)propan-2-yl)-1-((4-hydroxytetrahydro-2H-pyran-4-yl)methyl)pyrrolidine-3-carboxamide] | F (1-49% (or less than 50%)) | –
2 | O=C(N[C@H](CN1CCCC1)[C@H](O)c1ccc2c(c1)OCCO2)[C@H]1CCN(CC2(O)CCOCC2)C1 [Compound 5E, (S)-N-((1R,2R)-1-(2,3-dihydrobenzo[b][1,4]dioxin-6-yl)-1-hydroxy-3-(pyrrolidin-1-yl)propan-2-yl)-1-((4-hydroxytetrahydro-2H-pyran-4-yl)methyl)pyrrolidine-3-carboxamide] | F (1-49% (or less than 50%)) | –
3 | O=C(N[C@H](CN1CCCC1)[C@H](O)c1ccc(OC2CC2)c(Cl)c1)C1CCN(c2ccc(C(F)(F)F)cc2)C1 (stereo partly drawn) [Compound 6, N-((1R,2R)-1-(3-chloro-4-cyclopropoxyphenyl)-1-hydroxy-3-(pyrrolidin-1-yl)propan-2-yl)-1-(4-(trifluoromethyl)phenyl)pyrrolidine-3-carboxamide] | F (1-49% (or less than 50%)) | –
4 | O=C(N[C@H](CN1CCCC1)[C@H](O)c1ccc2c(c1)OCCO2)[C@@H]1CCN(C2CCOCC2)C1 [Compound 9, (R)-N-((1R,2R)-1-(2,3-dihydrobenzo[b][1,4]dioxin-6-yl)-1-hydroxy-3-(pyrrolidin-1-yl)propan-2-yl)-1-(tetrahydro-2H-pyran-4-yl)pyrrolidine-3-carboxamide] | NA (not active—a negative value was generated for % inhibition) | –
5 | O=C(N[C@H](CN1CCCC1)[C@H](O)c1ccc2c(c1)OCCO2)C1CCN(C2CCOCC2)C1 (stereo partly drawn) [Compound 9D, N-((1R,2R)-1-(2,3-dihydrobenzo[b][1,4]dioxin-6-yl)-1-hydroxy-3-(pyrrolidin-1-yl)propan-2-yl)-1-(tetrahydro-2H-pyran-4-yl)pyrrolidine-3-carboxamide] | F (1-49% (or less than 50%)) | –
6 | O=C(N[C@H](CN1CCCC1)[C@H](O)c1ccc2c(c1)OCCO2)[C@H]1CCN(C2CCOCC2)C1 [Compound 9E, (S)-N-((1R,2R)-1-(2,3-dihydrobenzo[b][1,4]dioxin-6-yl)-1-hydroxy-3-(pyrrolidin-1-yl)propan-2-yl)-1-(tetrahydro-2H-pyran-4-yl)pyrrolidine-3-carboxamide] | NA (not active—a negative value was generated for % inhibition) | –
7 | O=C(N[C@H](CN1CCCC1)[C@H](O)c1ccc(OC2CC2)c(Cl)c1)C1CCN(c2ccc(OC(F)(F)F)cc2)C1 (stereo partly drawn) [Compound 10, N-((1R,2R)-1-(3-chloro-4-cyclopropoxyphenyl)-1-hydroxy-3-(pyrrolidin-1-yl)propan-2-yl)-1-(4-(trifluoromethoxy)phenyl)pyrrolidine-3-carboxamide] | D (75-100%) | –
8 | O=C(N[C@H](CN1CCCC1)[C@H](O)c1ccc2c(c1)OCCO2)C1CCN(C2CCCC2)C1 (stereo partly drawn) [Compound 11, 1-cyclopentyl-N-((1R,2R)-1-(2,3-dihydrobenzo[b][1,4]dioxin-6-yl)-1-hydroxy-3-(pyrrolidin-1-yl)propan-2-yl)pyrrolidine-3-carboxamide] | NA (not active—a negative value was generated for % inhibition) | –
9 | O=C(N[C@H](CN1CCCC1)[C@H](O)c1ccc(OC2CC2)nc1)[C@@H]1CCN(c2ccc(Cl)cc2)C1 [Compound 13, (R)-1-(4-chlorophenyl)-N-((1R,2R)-1-(6-cyclopropoxypyridin-3-yl)-1-hydroxy-3-(pyrrolidin-1-yl)propan-2-yl)pyrrolidine-3-carboxamide] | – | 0.03 to 0.1 µM
10 | O=C(N[C@H](CN1CCCC1)[C@H](O)c1ccc(OC2CC2)nc1)[C@H]1CCN(c2ccc(Cl)cc2)C1 [Compound 13C, (S)-1-(4-chlorophenyl)-N-((1R,2R)-1-(6-cyclopropoxypyridin-3-yl)-1-hydroxy-3-(pyrrolidin-1-yl)propan-2-yl)pyrrolidine-3-carboxamide] | F (1-49% (or less than 50%)) | –
11 | O=C(N[C@H](CN1CCCC1)[C@H](O)c1ccc2c(c1)OCCO2)C1CCN(c2ccc3cc(F)ccc3c2)C1 (stereo partly drawn) [Compound 14C, N-((1R,2R)-1-(2,3-dihydrobenzo[b][1,4]dioxin-6-yl)-1-hydroxy-3-(pyrrolidin-1-yl)propan-2-yl)-1-(6-fluoronaphthalen-2-yl)pyrrolidine-3-carboxamide] | – | 0.001 to 0.03 µM
12 | O=C(N[C@H](CN1CCCC1)[C@H](O)c1ccc2c(c1)OCCO2)[C@@H]1CCN(Cc2ccc(Cl)cc2)C1 [Compound 15, (R)-1-(4-chlorobenzyl)-N-((1R,2R)-1-(2,3-dihydrobenzo[b][1,4]dioxin-6-yl)-1-hydroxy-3-(pyrrolidin-1-yl)propan-2-yl)pyrrolidine-3-carboxamide] | F (1-49% (or less than 50%)) | –
13 | O=C(N[C@H](CN1CCCC1)[C@H](O)c1ccc2c(c1)OCCO2)C1CCN(Cc2ccc(Cl)cc2)C1 (some centres unmarked) [Compound 15C] | F (1-49% (or less than 50%)) | –
14 | O=C(N[C@H](CN1CCCC1)[C@H](O)c1ccc2c(c1)OCCO2)[C@H]1CCN(Cc2ccc(Cl)cc2)C1 [Compound 15D, (S)-1-(4-chlorobenzyl)-N-((1R,2R)-1-(2,3-dihydrobenzo[b][1,4]dioxin-6-yl)-1-hydroxy-3-(pyrrolidin-1-yl)propan-2-yl)pyrrolidine-3-carboxamide] | F (1-49% (or less than 50%)) | –
15 | O=C(N[C@H](CN1CCCC1)[C@H](O)c1ccc2c(c1)OCCO2)[C@@H]1CCN(c2nccs2)C1 [Compound 17, (R)-N-((1R,2R)-1-(2,3-dihydrobenzo[b][1,4]dioxin-6-yl)-1-hydroxy-3-(pyrrolidin-1-yl)propan-2-yl)-1-(thiazol-2-yl)pyrrolidine-3-carboxamide] | E (50-74% (or less than 75%)) | –
16 | O=C(N[C@H](CN1CCCC1)[C@H](O)c1ccc2c(c1)OCCO2)[C@H]1CCN(c2nccs2)C1 [Compound 17D, (S)-N-((1R,2R)-1-(2,3-dihydrobenzo[b][1,4]dioxin-6-yl)-1-hydroxy-3-(pyrrolidin-1-yl)propan-2-yl)-1-(thiazol-2-yl)pyrrolidine-3-carboxamide] | NA (not active—a negative value was generated for % inhibition) | –
17 | O=C(N[C@H](CN1CCCC1)[C@H](O)c1ccc2c(c1)OCCO2)C1CCN(c2ccc(Cl)c(OC3CC3)c2)C1 (some centres unmarked) [Compound 19] | E (50-74% (or less than 75%)) | –
18 | O=C(N[C@H](CN1CCCC1)[C@H](O)c1ccc2c(c1)OCCO2)[C@@H]1CCN(c2ccc(OC3CC3)c(Cl)c2)C1 [Compound 20, (R)-1-(3-chloro-4-cyclopropoxyphenyl)-N-((1R,2R)-1-(2,3-dihydrobenzo[b][1,4]dioxin-6-yl)-1-hydroxy-3-(pyrrolidin-1-yl)propan-2-yl)pyrrolidine-3-carboxamide] | F (1-49% (or less than 50%)) | –
19 | O=C(N[C@H](CN1CCCC1)[C@H](O)c1ccc2c(c1)OCCO2)C1CCN(c2ccc(OC3CC3)c(Cl)c2)C1 (some centres unmarked) [Compound 20D] | E (50-74% (or less than 75%)) | –
20 | O=C(N[C@H](CN1CCCC1)[C@H](O)c1ccc2c(c1)OCCO2)[C@H]1CCN(c2ccc(OC3CC3)c(Cl)c2)C1 [Compound 20E, (S)-1-(3-chloro-4-cyclopropoxyphenyl)-N-((1R,2R)-1-(2,3-dihydrobenzo[b][1,4]dioxin-6-yl)-1-hydroxy-3-(pyrrolidin-1-yl)propan-2-yl)pyrrolidine-3-carboxamide] | F (1-49% (or less than 50%)) | –
